Experimental data: the NIST ThermoML archive (doi:10.1021/je060082s)
“And” between values parts separate entries of the source, which are not always exact repeats. Equal values may be shown once.

Conditions: Liquid; for mass density: 101.33 kPa, Vibrating tube method

CCCCCCCC[n+]1ccn(C)c1.F[P-](F)(F)(F)(F)F [1-octyl-3-methylimidazolium hexafluorophosphate]
Conditions	mass density
273.1 K	1256.13 kg/m3
278.1 K	1252.25 kg/m3
283.1 K	1248.38 kg/m3
288.15 K	1244.52 kg/m3
293.15 K	1240.68 kg/m3
298.15 K	1236.84 kg/m3 and 1236.75 kg/m3
303.15 K	1233.01 kg/m3
313.15 K	1225.34 kg/m3
323.15 K	1217.7 kg/m3 and 1217.68 kg/m3
333.15 K	1210.29 kg/m3
343.15 K	1202.88 kg/m3
353.15 K	1195.49 kg/m3
363.15 K	1188.13 kg/m3

Conditions	viscosity
273.15 K, 100 kPa	6410 mPa·s
278.15 K, 100 kPa	3889 mPa·s
283.15 K, 100 kPa	2439 mPa·s
293.15 K, 100 kPa	1065 mPa·s
298.15 K, 100 kPa	734.4 mPa·s and 731.6 mPa·s
298.15 K, 10200 kPa	853.7 mPa·s
298.15 K, 24600 kPa	1041 mPa·s
298.15 K, 39900 kPa	1299 mPa·s
303.15 K, 100 kPa	519.3 mPa·s
308.15 K, 100 kPa	374.6 mPa·s and 370.9 mPa·s
308.15 K, 5500 kPa	404.3 mPa·s
308.15 K, 9900 kPa	430.2 mPa·s
308.15 K, 25600 kPa	531.2 mPa·s
308.15 K, 48400 kPa	716.3 mPa·s
308.15 K, 74900 kPa	1008 mPa·s
313.15 K, 100 kPa	276.8 mPa·s
323.15 K, 100 kPa	158 mPa·s and 159 mPa·s and 159.2 mPa·s
323.15 K, 24800 kPa	217.5 mPa·s
323.15 K, 26300 kPa	222 mPa·s
323.15 K, 49900 kPa	295 mPa·s
323.15 K, 60500 kPa	348.9 mPa·s
323.15 K, 74800 kPa	395 mPa·s
323.15 K, 76000 kPa	404.2 mPa·s
323.15 K, 99700 kPa	524.6 mPa·s
333.15 K, 100 kPa	97 mPa·s and 97.9 mPa·s and 97.8 mPa·s
333.15 K, 13500 kPa	115.2 mPa·s
333.15 K, 30300 kPa	140.6 mPa·s
333.15 K, 50400 kPa	176.2 mPa·s
333.15 K, 75100 kPa	230.4 mPa·s
333.15 K, 100400 kPa	300.7 mPa·s
333.15 K, 125200 kPa	387.3 mPa·s
343.15 K, 100 kPa	63.7 mPa·s [middle of 4 runs]
343.15 K, 10000 kPa	70 mPa·s
343.15 K, 21300 kPa	81 mPa·s
343.15 K, 51800 kPa	112.7 mPa·s
343.15 K, 72900 kPa	138.7 mPa·s
343.15 K, 100300 kPa	182.6 mPa·s
343.15 K, 125900 kPa	233.7 mPa·s
343.15 K, 148800 kPa	296.2 mPa·s
343.15 K, 175900 kPa	378.4 mPa·s
353.15 K, 100 kPa	43 mPa·s

CCCCCCCC[n+]1ccn(C)c1.F[B-](F)(F)F [1-methyl-3-octylimidazolium tetrafluoroborate]
Conditions	mass density [kg/m3]
273.1 K	1120.96
278.1 K	1117.48
283.1 K	1114.01
288.15 K	1110.55
293.15 K	1107.11
298.15 K	1103.68
303.15 K	1100.24
313.15 K	1093.37
323.15 K	1086.56
333.15 K	1079.83
343.15 K	1073.18
353.15 K	1066.6
363.15 K	1060.08

Conditions	viscosity
273.15 K, 100 kPa	2291 mPa·s and 2289 mPa·s
278.15 K, 100 kPa	1477 mPa·s and 1478 mPa·s
283.15 K, 100 kPa	982 mPa·s
288.15 K, 100 kPa	673 mPa·s
293.15 K, 100 kPa	473 mPa·s
298.15 K, 100 kPa	341 mPa·s
298.15 K, 11200 kPa	393 mPa·s
298.15 K, 26200 kPa	475.7 mPa·s
298.15 K, 50500 kPa	638.3 mPa·s
298.15 K, 51500 kPa	645.9 mPa·s
298.15 K, 60800 kPa	720.1 mPa·s
298.15 K, 80200 kPa	902.3 mPa·s
298.15 K, 100200 kPa	1130 mPa·s
298.15 K, 116700 kPa	1359 mPa·s
298.15 K, 117500 kPa	1371 mPa·s
303.15 K, 100 kPa	251 mPa·s
308.15 K, 100 kPa	188.4 mPa·s [middle of 5 runs]
308.15 K, 800 kPa	190.1 mPa·s
308.15 K, 2900 kPa	194.9 mPa·s
308.15 K, 5600 kPa	204.3 mPa·s
308.15 K, 10900 kPa	214.2 mPa·s
308.15 K, 26000 kPa	255.1 mPa·s
308.15 K, 50700 kPa	337.1 mPa·s
308.15 K, 76200 kPa	444 mPa·s
308.15 K, 100300 kPa	571.1 mPa·s
308.15 K, 124400 kPa	731.7 mPa·s
308.15 K, 150200 kPa	945.5 mPa·s
308.15 K, 200100 kPa	1527 mPa·s
313.15 K, 100 kPa	144.1 mPa·s
323.15 K, 100 kPa	88.8 mPa·s and 88.7 mPa·s
323.15 K, 700 kPa	89.2 mPa·s
323.15 K, 4900 kPa	93.5 mPa·s
323.15 K, 10500 kPa	99.3 mPa·s
323.15 K, 25800 kPa	118.2 mPa·s
323.15 K, 50800 kPa	150.1 mPa·s
323.15 K, 75700 kPa	191.2 mPa·s
323.15 K, 100600 kPa	241.8 mPa·s
323.15 K, 125500 kPa	303.1 mPa·s
323.15 K, 149900 kPa	376.5 mPa·s
323.15 K, 175500 kPa	469.8 mPa·s
323.15 K, 199800 kPa	577.3 mPa·s
333.15 K, 100 kPa	57.8 mPa·s
333.15 K, 10800 kPa	64.4 mPa·s
333.15 K, 25700 kPa	74.6 mPa·s
333.15 K, 50300 kPa	94.3 mPa·s
333.15 K, 75600 kPa	118.7 mPa·s
333.15 K, 100500 kPa	147.7 mPa·s
333.15 K, 125300 kPa	182.5 mPa·s
333.15 K, 150200 kPa	224.3 mPa·s
333.15 K, 175100 kPa	274.4 mPa·s
333.15 K, 200000 kPa	334.1 mPa·s
343.15 K, 100 kPa	39.4 mPa·s
348.15 K, 100 kPa	32.8 mPa·s
348.15 K, 300 kPa	32.7 mPa·s
348.15 K, 1600 kPa	33.2 mPa·s
348.15 K, 3100 kPa	33.7 mPa·s
348.15 K, 5400 kPa	34.4 mPa·s
348.15 K, 10200 kPa	36 mPa·s
348.15 K, 25600 kPa	41.4 mPa·s
348.15 K, 50300 kPa	51.5 mPa·s
348.15 K, 75600 kPa	63.6 mPa·s
348.15 K, 100500 kPa	77.7 mPa·s
348.15 K, 125400 kPa	94.3 mPa·s
348.15 K, 150400 kPa	114.3 mPa·s
348.15 K, 175300 kPa	136.8 mPa·s
348.15 K, 200200 kPa	163.6 mPa·s
348.15 K, 224200 kPa	193.7 mPa·s
353.15 K, 100 kPa	28.1 mPa·s
